Measurements from patent US20260325685A1, “Radiopharmaceutical Compositions Targeting Carbonic Anhydrase IX and Uses Thereof” (RayzeBio, Inc., priority 2023, published 2026).
Where two headings read alike, the source gives them in different places.

How the values were obtained:
human CA-IX = target: T1, human CA-IX (Homo sapiens, UniProt Q16790); test: Surface Plasmon Resonance (SPR) binding kinetics to recombinant human CA-IX (Biacore 8K, single-cycle kinetics, 1:1 binding model); details: for Kd: SPR, 25° C., pH 7.4, read-out: CAIX KD
T1 construct: purchased Acro CA9-H82E3
Procedure, shortened: (§1)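 Recombinant human CA-IX or CA-XII captured on streptavidin chips (1200-1800 RU) in PBS-P+, pH 7.4. Single-cycle kinetics over 9 analyte concentrations (100-0.39 nM) with 1% DMSO, 120 s association, 1200 s dissociation, 25° C. Reference- and DMSO-corrected curves fit to 1:1 model for on/off rates.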

human CA-XII = target: T2, human CA-XII (Homo sapiens, UniProt O43570); test: Surface Plasmon Resonance (SPR) binding kinetics to recombinant human CA-XII (Biacore 8K, single-cycle kinetics, 1:1 binding model); details: pH 7.4, read-out: CAXII KD
T2 construct: purchased Creative BioMart CA12-261H
T2 sequence (O43570 25-354): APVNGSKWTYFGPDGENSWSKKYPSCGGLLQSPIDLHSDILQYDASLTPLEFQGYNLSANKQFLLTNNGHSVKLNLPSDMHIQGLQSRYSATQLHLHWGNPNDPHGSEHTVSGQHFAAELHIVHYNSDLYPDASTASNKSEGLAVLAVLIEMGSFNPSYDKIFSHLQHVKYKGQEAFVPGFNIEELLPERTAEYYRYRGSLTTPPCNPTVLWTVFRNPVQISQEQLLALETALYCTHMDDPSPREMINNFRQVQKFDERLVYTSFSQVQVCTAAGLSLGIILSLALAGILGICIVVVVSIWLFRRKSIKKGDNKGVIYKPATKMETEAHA
Procedure, shortened: as §1

SMILES	Kd (human CA-IX; Chelated Metal: Lu-175)	Kd (human CA-XII; Chelated Metal: Lu-175, 25° C.)	Kd (human CA-IX; Chelated Metal: None)	Ratio (CAXII/CAIX) (human CA-IX; KD ratio CAXII/CAIX, Chelated Metal: None)	Kd (human CA-XII; Chelated Metal: None, 25° C.)
NS(=O)(=O)c1nnc(NC(=O)C23CC(c4cn(CCNC(=O)[C@@H]5CN(C(=O)CN6CCN(CC(=O)O)CCN(CC(=O)O)CCN(CC(=O)O)CC6)CCN5C(=O)C[C@H](NC(=O)C[C@H](NC(=O)CCCc5ccc(Cl)cc5)C(=O)O)C(=O)O)nn4)(C2)C3)s1.[Lu+3] [Compound 109.37]	< 1 nM	2.5 to 10 nM			
CC(CCC(=O)N[C@@H](CC(=O)N[C@@H](CC(=O)N[C@@H](CCCCn1cc(C23CCC(C(=O)Nc4nnc(S(N)(=O)=O)s4)(CC2)C3)nn1)C(=O)N1CCN(C(=O)CN2CCN(CC(=O)O)CCN(CC(=O)O)CCN(CC(=O)O)CC2)CC1)C(=O)O)C(=O)O)(c1ccc(O)cc1)c1ccc(O)cc1.[Lu+3] [Compound 100.13]	< 1 nM	< 1 nM			
CC(CCC(=O)N[C@@H](CC(=O)N[C@@H](CC(=O)N1CCN(C(=O)CN2CCN(CC(=O)O)CCN(CC(=O)O)CCN(CC(=O)O)CC2)C[C@@H]1CCCCn1cc(C23CCC(C(=O)Nc4nnc(S(N)(=O)=O)s4)(CC2)C3)nn1)C(=O)O)C(=O)O)(c1ccc(O)cc1)c1ccc(O)cc1 [Compound 104.2]			< 1 nM	* (1 < * < 5)	< 1 nM
CC(CCCC(=O)N1CCC(C(N)=O)(C(=O)NCC(=O)NC2(C(=O)NCCn3cc(C45CC(C(=O)Nc6nnc(S(N)(=O)=O)s6)(C4)C5)nn3)CCN(C(=O)CN3CC4(C3)CN(C(=O)CN3CCN(CC(=O)O)CCN(CC(=O)O)CCN(CC(=O)O)CC3)C4)CC2)CC1)(c1ccc(O)cc1)c1ccc(O)cc1.[Lu+3] [Compound 129.7]	< 1 nM	> 10 nM			
CC(CCC(=O)N[C@@H](CC(=O)N[C@@H](CC(=O)N1CCN(C(=O)CN2CCN(CC(=O)O)CCN(CC(=O)O)CCN(CC(=O)O)CC2)C[C@H]1C(=O)NCCn1cc(C23CC(C(=O)Nc4nnc(S(N)(=O)=O)s4)(C2)C3)nn1)C(=O)O)C(N)=O)(c1ccc(O)cc1)c1ccc(O)cc1.[Lu+3] [Compound 107.50]	< 1 nM	> 10 nM			
NS(=O)(=O)c1nnc(NC(=O)C23CC(c4cn(CCNC(=O)[C@@H]5CN(C(=O)CN6CCN(CC(=O)O)CCN(CC(=O)O)CCN(CC(=O)O)CC6)CCN5C(=O)C[C@H](NC(=O)C[C@H](NC(=O)CCC56CCC(CC5)C6)C(=O)O)C(=O)O)nn4)(C2)C3)s1.[Lu+3] [Compound 109.9]	< 1 nM	1 to 2.5 nM			
NS(=O)(=O)c1nnc(NC(=O)C23CCC(c4cn(CCNC(=O)[C@@H]5CN(C(=O)CN6CCN(CC(=O)O)CCN(CC(=O)O)CCN(CC(=O)O)CC6)CCN5C(=O)CC[C@H](NC(=O)C[C@H](NC(=O)c5coc(C(F)(F)F)n5)C(=O)O)C(=O)O)nn4)(CC2)CC3)s1.[Lu+3] [Compound 109.59]	< 1 nM	< 1 nM			
CC(CCC(=O)N[C@@H](CC(=O)N[C@@H](CC(=O)N[C@@H](CCCCn1cc(C23CCC(C(=O)Nc4nnc(S(N)(=O)=O)s4)(CC2)CC3)nn1)C(=O)NCCOCCOCCNC(=O)CN1CCN(CC(=O)O)CCN(CC(=O)O)CCN(CC(=O)O)CC1)C(=O)O)C(=O)O)(c1ccc(O)cc1)c1ccc(O)cc1.[Lu+3] [Compound 100.6]	< 1 nM	1 to 2.5 nM			
CC(CCC(=O)N[C@@H](CC(=O)N[C@@H](CC(=O)N[C@@H](CCCn1cc(C23CC(C(=O)Nc4nnc(S(N)(=O)=O)s4)(C2)C3)nn1)C(=O)NCCOCCOCCNC(=O)CN1CCN(CC(=O)O)CCN(CC(=O)O)CCN(CC(=O)O)CC1)C(=O)O)C(=O)O)(c1ccc(O)cc1)c1ccc(O)cc1.[Lu+3] [Compound 100.2]	1 to 2.5 nM	> 10 nM			
CC(CCNC(=O)c1cnc(N[C@@H](CC(=O)N2CCN(C(=O)CN3CCN(CC(=O)O)CCN(CC(=O)O)CCN(CC(=O)O)CC3)C[C@@H]2C(=O)NCCn2cc(C34CC(C(=O)Nc5nnc(S(N)(=O)=O)s5)(C3)C4)nn2)C(=O)O)nc1)(c1ccc(O)cc1)c1ccc(O)cc1.[Lu+3] [Compound 111.1]	1 to 2.5 nM	> 10 nM			
NC(=O)C1(C(=O)NCC(=O)N2CCN(C(=O)CN3CCN(CC(=O)O)CCN(CC(=O)O)CCN(CC(=O)O)CC3)C[C@H]2C(=O)NCCn2cc(C34CC(C(=O)Nc5nnc(S(N)(=O)=O)s5)(C3)C4)nn2)CCN(C(=O)CCn2nc(-c3ccc(O)cc3)c3ccc(O)cc32)CC1.[Lu+3] [Compound 107.52]	1 to 2.5 nM	> 10 nM			
